From the NIST ThermoML archive (doi:10.1016/j.jct.2016.02.017)

Assay: Boiling temperature at pressure P
Settings: Liquid, Ebulliometric method (Recirculating still)

O [water]
Settings	Boiling temperature at pressure P [°C]
12.1 kPa	50.7
25.8 kPa	67.2
41.8 kPa	78.7
59.7 kPa	85.5
74.1 kPa	91.2
91.8 kPa	97.7
